From patent EP0384722A1, “Chemical compositions” (PITMAN-MOORE LIMITED, priority 1989, dated 1990)
Where two headings read alike, the source gives them in different places.

Legend:
[1] = Comparison of bioavailability of Compound A and Trimethoprim (TMP) administered by i/v injection, dogs; type: in vivo; conditions: i/v injection at 2 mg/kg; for concentration at 0 h: 0 hours post inj.; for concentration at 1 h: 1 hours post inj.; for concentration at 3 h: 3 hours post inj.; for concentration at 5 h: 5 hours post inj.; for concentration at 7 h: 7 hours post inj.; for concentration at 24 h: 24 hours post inj.; for concentration at 48 h: 48 hours post inj.
Experimental: One male beagle dog, 13.5 kg and one female beagle, 11.1kg, both aged about 18 months, received i/v injections (cephalic vein) of the test compounds at 2mg base/kg, using 15mg base /ml aqueous solutions.

[2] = Comparison of bioavailability of Compound A and Trimethoprim (TMP) administered by i/v injection, cats; type: in vivo; conditions: serum, i/v injection at 2 mg/kg; for concentration at 0 h: 0 hours post inj.; for concentration at 1 h: 1 hours post inj.; for concentration at 3 h: 3 hours post inj.; for concentration at 5 h: 5 hours post inj.; for concentration at 24 h: 24 hours post inj.
Experimental: Two young adult female cats, bodyweight around 3 kg, were given i/v injections at 2 mg/kg of TMP or Compound A, using 3 mg/base ml aqueous solutions.

[3] = female, beagle, serum, intravenous, dog F, read-out: Serum conc. of Compound A
[4] = male, beagle, serum, intravenous, dog M, read-out: Serum conc. of Compound A
[5] = female, cat, intravenous, 2 mg/kg, cat 3, read-out: Serum conc. of Compound A
[6] = female, cat, intravenous, 2 mg/kg, cat 4, read-out: Serum conc. of Compound A

Which results are given for `Cc1cc(Cc2cnc(N)nc2N)c2cccnc2c1N(C)C` [Compound A, 2,4-diamino-5-(8-dimethylamino-7-methyl-5-quinolylmethyl) pyrimidine]?
half-life ([1]; both sexes, beagle, dog, intravenous, dogs, serum, read-out: Est.t1/2 (converted)): 15 h; half-life in comparison with TMP ([1]; dogs): greatly extended half-life in comparison with TMP; concentration at 0 h [1, 3]: 0 ng/mL; concentration at 1 h [1, 3]: 410 ng/mL; concentration at 3 h [1, 3]: 340 ng/mL; concentration at 5 h [1, 3]: 300 ng/mL; concentration at 7 h [1, 3]: 290 ng/mL; concentration at 24 h [1, 3]: 124 ng/mL; concentration at 30 h ([1]; female, beagle, serum, intravenous, dog F, 30 hours post inj., read-out: Serum conc. of Compound A): 100 ng/mL; concentration at 48 h [1, 3]: 46 ng/mL; concentration at 0 h [1, 4]: 0 ng/mL; concentration at 1 h [1, 4]: 240 ng/mL; concentration at 3 h [1, 4]: 270 ng/mL; concentration at 5 h [1, 4]: 260 ng/mL; concentration at 7 h [1, 4]: 250 ng/mL; concentration at 24 h [1, 4]: 110 ng/mL; concentration at 48 h [1, 4]: 39 ng/mL; Est.t1/2 ([2]; cats): 2.4 h; half-life ([2]; female, cat, intravenous, cats, read-out: Est.t1/2 (converted)): 2.4 h; concentration at 0 h [2, 5]: 0 ng/mL; concentration at 1 h [2, 5]: 320 ng/mL; concentration at 3 h [2, 5]: 160 ng/mL; concentration at 5 h [2, 5]: 100 ng/mL; concentration at 7 h ([2]; female, cat, intravenous, 2 mg/kg, cat 3, 7 hours post inj., read-out: Serum conc. of Compound A): 72 ng/mL; concentration at 24 h [2, 5]: 0 ng/mL; concentration at 0 h [2, 6]: 0 ng/mL; concentration at 1 h [2, 6]: 310 ng/mL; concentration at 3 h [2, 6]: 140 ng/mL; concentration at 5 h [2, 6]: 86 ng/mL; concentration at 24 h [2, 6]: 0 ng/mL
